Test results published in US20260306465A1, “COMPOUNDS FOR TREATING HEREDITARY SPASTIC PARAPLEGIA” (The Children's Medical Center Corporation, priority 2023, published 2026).

Test system: AP4B1-KO SH-SY5Y cells
Assay: Testing of compounds for AP-4 deficiency: ATG9A translocation in AP4B1-KO SH-SY5Y cells
Conditions: 24 h, std error in own column
Description: SH-SY5Y cell culture. […] Media changes were done every 2-3 days and drugs were administered 24 h before fixation.
Immunocytochemistry. […] SH-SY5Y cells were fixed using 4% PFA, permeabilized with 0.1% saponin in PBS and blocked in 1% BSA/0.01% saponin (blocking solution) in PBS. Primary antibody (diluted in blocking solution) was added for 1 h at room temperature. […] Plates were then gently washed three times with PBS and protected from light.
High-content imaging and automated image analysis. […] Up to 36 fields were acquired in a 6×6 format (96-well plate) using a 40×S Plan Fluor objective (NA 0.60 m, WB 3.6-2.8 mm). Image analysis was performed using a customized image analysis pipeline in MetaXpress (Molecular Devices): Briefly, cells were identified based on the presence of DAPI signal inside a TUBB3-positive cell body. […] ATG9A fluorescence intensity (F.U.) was measured in both compartments in each cell, and the ATG9A ratio was calculated by dividing the ATG9A fluorescence intensity inside the TGN by the ATG9A fluorescence intensity in the remaining cell body:
Z′-factor robust values and strictly standardized median difference (SSMD) were calculated for each plate and only plates that met the predefined quality metrics of a Z′-factor robust 0.3 and SSMD 3 were included in analyses.

EC50 (z atg9a ratio)	Compound
4.418	Oc1cccc2sc(N3CCc4[nH]cnc4C3)nc12 [Compound 10]
1.185	Cc1cccc2sc(N3CCc4[nH]cnc4C3)nc12 [Compound 17]
